Experimental data taken from US20030180304A1, “Secretory tyrosine phosphatases from mycobacteria” (priority 2000, published 2003).
“Also recorded” adds a separate entry of the source.

Legend:
MptpB = molecular target: T1, MptpB (Mycobacterium tuberculosis, UniProt I6WXK4); type: biochemical, M. tuberculosis; conditions: pH 5.6
T1 construct: made in house; host or cells: E. coli BL21 (pGEX-5X-3)

MptpA = molecular target: T2, MptpA (Mycobacterium tuberculosis, UniProt P9WIA1); type: biochemical, M. tuberculosis; conditions: pH 7
T2 construct: made in house; host or cells: E. coli BL21 (pGEX-5X-3)
T2 sequence (P9WIA1 whole entry): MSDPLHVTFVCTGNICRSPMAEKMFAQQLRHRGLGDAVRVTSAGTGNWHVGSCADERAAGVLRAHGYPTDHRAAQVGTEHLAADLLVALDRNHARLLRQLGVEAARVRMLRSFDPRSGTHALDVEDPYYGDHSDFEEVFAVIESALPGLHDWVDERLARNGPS

T1 sequence (I6WXK4 whole entry, looked up): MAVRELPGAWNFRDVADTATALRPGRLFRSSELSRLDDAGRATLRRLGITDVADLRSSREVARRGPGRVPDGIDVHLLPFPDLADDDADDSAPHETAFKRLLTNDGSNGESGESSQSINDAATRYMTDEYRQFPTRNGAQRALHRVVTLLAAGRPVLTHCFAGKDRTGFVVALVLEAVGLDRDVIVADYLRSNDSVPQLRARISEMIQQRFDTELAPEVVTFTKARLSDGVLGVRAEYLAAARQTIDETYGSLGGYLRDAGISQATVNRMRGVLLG

| Structure (SMILES) | Effect of inhibitor on the activity of MptpB towards tyrosine phosphorylated MBP (MptpB) | Effect of inhibitor on the activity of MptpA towards tyrosine phosphorylated MBP (MptpA) |
| --- | --- | --- |
| C=C1[C@@H](O)[C@@H]2O[C@]3(CC[C@H](/C=C/[C@@H](C)[C@@H]4CC(C)=C[C@@]5(O[C@H](C[C@@](C)(O)C(=O)O)CC[C@H]5O)O4)O3)CC[C@H]2O[C@@H]1[C@@H](O)C[C@H](C)[C@H]1O[C@@]2(CCCCO2)CC[C@H]1C [okadaic acid] | had no effect; also recorded: did not inhibit | had no effect; also recorded: did not inhibit |
| [F-].[Na+] [sodium fluoride] | had no effect | had no effect |
| [Na+].[Na+].[Na+].[O]=[V]([O-])([O-])[O-] [sodium orthovanadate] | inhibited | inhibited |
| O=C(O)C(O)C(O)C(=O)O (stereo not shown) [tartrate] | had no effect; also recorded: insensitive | had no effect; also recorded: insensitive |
| c1ccc(C2CN3CCSC3=N2)cc1 (stereo not shown) [tetramisole] | had no effect; also recorded: insensitive | had no effect; also recorded: insensitive |
